Source: patent US6586460B1, “Heteroarotinoids containing urea or thiourea linker” (The Board of Regents for Oklahoma State University, priority 2001, dated 2003)
Several values for one entry are separate records, joined by “and”; a condition that tells them apart may be missing. Identical values can stand only once.

Key:
C-33A = assay: Growth inhibition assay (SRB); assay type: cell-based; conditions: 10 μM, three-day treatment, Table I
Source text: (§1) To illustrate the general and useful biological activity of the heteroarotinoids described in this invention, selected compounds were screened for ability to inhibit the growth of three ovarian cancerous cell lines, namely Caov, SKOV, and OVCAR cell lines, three cervical cell lines (Cervix HPV-Wt p53, Cervix HPV-Mut p53, and Cervix HPV-Mut p53), and one vulvar (Vulvar HPV-Mut p53) cell line as shown in Tables I-III. The cell lines and the technology have been previously described [See Journal of Medicinal Chemistry, 1999, Vol. 42, pages 3602-3614 in an article entitled “Synthesis, Structure-Activity Relationships, and RAR γ-Ligand Interactions of Nitrogen Heteroarotinoids” by A. Dhar, S. Liu, J. Klucik, K. D. Berlin, M. M. Madler, S. Lu, R. T. Ivey, D. Zacheis, C. W. Brown, E. C. Nelson, P. J. Birckbichler, and D. M. Benbrook], but the general technique was slightly modified. Cultures of the cancerous cells were plated in volumes of 150 μL in 96-well microtiter plates at concentrations of 2000-4000 cells/well, depending upon the cell line used. Retinoids were added the next day at 4× the concentrations in 50 μL of media resulting in 1, 2, 3, 4, 5, 7, and 10 μM final concentrations of each retinoid. Control cultures were treated with the same volume of DMSO. After 3 days of treatment, the cell density in each well was determined by fixing the cells in trichloroacetic acid followed by staining the cytoplasmic proteins with sulforhoamine B (SRB). After rinsing, the SRB was solubilized in Tris-HCl, and the optical density of each culture was determined with a MR600 microtiter plate reader. Each experiment was performed in triplicate, and the three values of each treatment were averaged. The average OD of the treated cultures was divided by that of the control cultures treated with solvent alone. To determine the percent growth inhibition, this ratio was subtracted from 1 and multiplied by 100. Tables I, II, and III contain representative examples of the inhibition of growth by the inventive heteroarotinoids of the cancerous cell lines investigated at two independent concentrations (1 and 10 μM). As standards for comparison purposes, trans-retinoic acid (t-RA), 9-cis-retinoic acid (9-c-RA), 13-cis-retinoic acid (13-c-RA), and […] (4-HPR) were added in parallel experiments along with the heteroarotinoids and with dimethyl sulfoxide (DMSO) as the solvent. For convenience, the data in Tables II and III are duplicated and ranked according to tumor type.

CAOV-3 = assay: Growth inhibition assay (SRB); assay type: cell-based; conditions: for Percentage of growth inhibition, CAOV−3: 3 days of treatment
Source text: as §1

HT-3 = assay: Growth inhibition assay (SRB); assay type: cell-based; conditions: 10 μM, three-day treatment, Table I
Source text: as §1

SK-OV-3 = assay: Growth inhibition assay (SRB); assay type: cell-based; conditions: for Percentage of growth inhibition, SKOV−3: 3 days of treatment
Source text: as §1

SW962 = assay: Growth inhibition assay (SRB); assay type: cell-based; conditions: 10 μM, three-day treatment, Table I
Source text: as §1

SiHa = assay: Growth inhibition assay (SRB); assay type: cell-based; conditions: 10 μM, three-day treatment, Table I
Source text: as §1

OVCAR-3 = assay: Growth inhibition assay (SRB); assay type: cell-based, human; conditions: for Percentage of growth inhibition, OVCAR−3: 3 days of treatment
Source text: as §1

[1] = test system: ovarian carcinoma cell line OVCAR-3; assay: Apoptosis in organotypic culture, TUNNEL assay; assay type: cell-based, human; conditions: 1 μM, two weeks, organotypic culture, TUNNEL assay
Method: In another experiment, the ovarian carcinoma cell line OVCAR-3 was grown in organotypic culture. After one week, the cultures were treated with 1 μM solution of heteroarotinoids 11, 12, and 13, or with the same volume of DMSO (solvent), for two weeks. Both 9-c-RA and 4-HPR were used as controls. At the end of the time, the cultures were fixed in sectioned, and stained with the TUNNEL assay to detect apoptosing cells. An experienced pathologist quantitated the percent of apoptosing cells by light microscopic examination.

[2] = test system: SW962 vulvar carcinoma cultures; assay: Apoptosis assay, Annexin-V-Flous/propidium iodide flow cytometry; assay type: cell-based
Source text: Optimal chemotherapeutic agents will selectively kill tumor cells by inducing a natural form of cell death which is called “apoptosis”. Toxic agents kill both normal and tumor cells via a nonspecific process known as “necrosis”. To differentiate between apoptosis and necrosis in heteroarotinoid-treated cultures, a flow cytometric assay was employed. Treated cultures were stained with Annexin-V-Flous and propidium iodide, and the intensities of the stains are quantitated with Flow Cytometry. The Annexin-V-Flous binds to phosphatidyl serine on the exterior of apoptosing cells. This assay is specific for apoptosing cells because phosphatidyl serine is normally located on the inner membrane of the cells, a situation whereby the serine derivative cannot be bound by Annexin. However, during apoptosis, phosphatidyl serine is translocated to the outer membrane. The Flous moiety emits a signal that can be detected and quantitated by Flow Cytometry. In contrast, propidium iodide is taken up by necrotic cells that have lost membrane integrity. In this study, t-RA was used as a control for the non-apoptotic retinoids, and 4-HPR was used as a control for the apoptotic retinoids.

[3] = Liver toxicity (plasma ALT activity, liver sections); assay type: in vivo; conditions: 10 mg/kg/day p.o.
Source text: Toxic compounds can induce livers to release enzymes called serum transaminases, such as alanine aminotransferase (ALT). The assay for ALT is the most universally accepted clinical laboratory marker used to evaluate hepatic toxicity induced by pharmaceuticals [See “Serum Transferase Elevations as Indicators or Hepatic Injury Following the Administration of Drugs”, Reg. Tox. Pharm., volume 27, 1998, pp 119-130, by D. E. Amacher]. At the end of the treatment period, blood was drawn from each animal. Plasma was separated by centrifugation and stored at −70° C. The activity of ALT was determined in aliquots of plasma by standard spectrophotometric enzymatic techniques which were based upon the reduction of pyruvate by lactate dehydrogenase [See “Aged Mice are Resistant to the Hepatotoxic Effects of Endotoxin and Galactosamine” in Exp. Mol. Pathology, volume 59, 1993, pp 27-37]. The method measures the disappearance of NADH from time of incubation at 37° C. The activities have been expressed in μm/Liter/min (Table VI). Two different amounts of plasma were utilized in each assay to assure the measurement of the maximum rate.
There were no statistically significant differences between the ALT activities in the different treatment groups (Table VI, t-test: P>0.05). All numbers were in the normal range (63 to 307 μm/Liter/Min) of ALT values for the species of mouse utilized. All liver sections were assessed by an experienced pathologist in a blinded manner. The degree of necrosis was very mild in all animals.

[4] = test system: OVCAR-3 cisplatin-resistant ovarian carcinoma cell line; assay: Cisplatin chemosensitization (MTS assay); assay type: cell-based, human; conditions: for chemosensitization to cisplatin (percent growth, FIG. 2): 1 μM retinoid 3 days before and 3 days after one hour of cisplatin (40 μM or 1 μg/ml)
Method: The compounds of the present invention also find advantage over the standard retinoids, including retinoic acid and 4-HPR as chemosensitization agents. In another study, ovarian carcinoma cultures, including cisplatin-resistant cultures, were trypsinized and plated in microtiter plates at a concentration of 1000 cells per well. A series of natural and synthetic retinoids, including exemplar heteroarotinoids with the novel three atom linker, at a concentration of 5 μM were added to triplicate wells in the microtiter plates twenty-four hours later. The same volume of DMSO used to administer the compounds were added to the control cultures. After three days of treatment, a range of cisplatin concentrations were added to the wells. After one hours of exposure, the media and retinoid drugs were replenished. Cell survival was quantitated using the MTS assay (Promega). […] Thus, the present invention contemplates the process of sensitizing cells to cisplatin therapy and combined cisplatin and radiation therapy using the inventive heteroarotinoids.
In this regard, the cisplatin resistant OVCAR-3 cell line was pre-treated with a concentration of 1 μM of the indicated retinoids for 3 days, and then exposed to cisplatin at the concentration detected in tumors of treated patients (40 μM or 1 μg/ml). […] After one hour of cisplatin exposure, the cisplatin was removed and the cultures were grown in the presence of 1 μM of the indicated retinoids for an additional 3 days. The number of living cells present was then determined using the MTS (3-(4,5-dimethylthiazol-2-yl)-5-(3-carboxymethoxyphenyl)-2H-tetrazolium inner salt) assay (Promega). In the MTS assay, metabolically active cells reduce the MTS compound to an aqueous soluble formazan resulting in an absorbance that can be measured at 490 nm (Promega Technical Bulletin No.169). The optical density at 490 nm (OD490) of the MTS-treated cultures is then determined and used as a measure of the number of living cells in each well. The percent growth is determined by dividing the OD490 of the treated cultures by the OD490 of the untreated control cultures.

[5] = 10 μM, three-day treatment, Table I

| Compound | Percentage of growth inhibition, SKOV−3 (SK-OV-3; 1 μM, Table II) [%] | Percentage of growth inhibition, SKOV−3 (SK-OV-3; 10 μM, Table III) [%] | Percentage of growth inhibition, OVCAR−3 (OVCAR-3; 1 μM, Table II) [%] | Percentage of growth inhibition, OVCAR−3 (OVCAR-3; 10 μM, Table III) | % APOPTOSIS of OVCAR-3 cells [1] [%] | Percentage of induction of apoptosis in SW962 vulvar carcinoma cultures ([2]; Days 0) [%] | Percentage of induction of apoptosis in SW962 vulvar carcinoma cultures ([2]; Days 1) [%] | Percentage of induction of apoptosis in SW962 vulvar carcinoma cultures ([2]; Days 3) [%] | chemosensitization to cisplatin (percent growth, FIG. 2) [4] | Percentage of growth inhibition, CAOV−3 (CAOV-3; 1 μM, Table II) [%] | Percentage of growth inhibition, CAOV−3 (CAOV-3; 10 μM, Table III) [%] | further results |
| --- | --- | --- | --- | --- | --- | --- | --- | --- | --- | --- | --- | --- |
| 9-cis-retinoic acid [9-c-RA, reference compound] | 23.0 | 16.0 | 6.2 | 5.3% | 80 |  |  |  |  |  |  | Percentage growth inhibition, C-33A (Cervix HPV− Mut p53) (C-33A): 44%; Percentage growth inhibition, CAOV-3 (Ovarian HPV− Mut p53) (CAOV-3; [5]): 27%; Percentage growth inhibition, HT-3 (Cervix HPV− Mut p53) (HT-3): 47%; Percentage growth inhibition, SK-OV-3 (Ovarian HPV− Null p53) (SK-OV-3; [5]): 30%; Percentage growth inhibition, SW962 (Vulva HPV− Mut p53) (SW962): 31%; Percentage growth inhibition, SiHa (Cervix HPV+ Wt p53) (SiHa): 24%; Percentage growth inhibition, OVCAR-3 (Ovarian HPV− Mut p53) (OVCAR-3; [5]): 28% |
| CC1=C(/C=C/C(C)=C/C=C/C(C)=C/C(=O)Nc2ccc(O)cc2)C(C)(C)CCC1 [4-HPR, 4-hydroxyphenylretinamide, reference compound] | 7.2 | 64.9 | 2.7 | 43.1% | 95 | 3 | 1.67 | 17.28 | but not 4-HPR are effective |  |  | Percentage of induction of apoptosis in SW962 vulvar carcinoma cultures ([2]; Days 2): 3.6%; liver toxicity (ALT activities, liver sections assessed by pathologist) ([3]; mice): do not appear to induce significant liver toxicity; ALT ACTIVITY ([3]; plasma of mice at end of treatment period): 149.7 ± 140.9 μm/Liter/Min; chemosensitization to cisplatin (cell survival, MTS) ([4]; 5 μM retinoid, three days, then range of cisplatin concentrations): prevented the growth increase |
| Cc1cc([N+](=O)[O-])ccc1NC(=S)Nc1ccc2c(c1)C(C)(C)CC(C)(C)S2 [heteroarotinoid 16] | −1.67 | 52.81 | 10.20 | 74.05% |  |  |  |  | effective | 15.33 | 83.22 |  |
| CCOC(=O)c1ccc(NC(=O)Nc2cccc3c2SC(C)(C)CC3(C)C)cc1 [heteroarotinoid 24] | 1.86 | 7.98 | −2.16 | 26.53% |  |  |  |  | effective | 17.55 | 53.11 |  |
| trans-retinoic acid [t-RA, reference compound] | 8.8 | 6.0 | 6.0 | −3.0% and 3.0% |  | 3 | 2.53 | 1.25 |  |  |  | Percentage of induction of apoptosis in SW962 vulvar carcinoma cultures ([2]; Days 4): 4.5%; Percentage of induction of apoptosis in SW962 vulvar carcinoma cultures ([2]; Days 7): 3.51% |
